Source: ChEMBL document CHEMBL4680234, “Antibacterial AZT derivative regulates metastasis of breast cancer cells” (Eur J Med Chem, 2020)
Converted amounts (≈) assume the structure as drawn. The source made the active and inactive calls. No cut-off for these calls is given here.

What was measured:
MDA-MB-231 [1] = assay: Inhibition of actin polymerization in human MDA-MB-231 cells assessed as reduction in lamellipodium formation at 20 to 40 uM measured after 6 hrs by Texas Red-conjugated phalloidin staining based fluorescence microscopic analysis; assay type: cell-based; conditions: dose 20-40 µM
MDA-MB-231 [2] = assay: Antimigratory activity in human MDA-MB-231 cells assessed as reduction in wound closure at 40 uM measured after 18 to 36 hrs by microscopic analysis; assay type: functional, cell-based; conditions: time 18-36 hrs
Escherichia coli [3] = assay: Antibacterial activity against Escherichia coli KCTC 1682 assessed as reduction in bacterial growth incubated for 18 to 22 hrs by spectrophotometry based broth microdilution method; assay type: functional; conditions: time 18-22 hrs, read-out: MIC100
Pseudomonas aeruginosa [4] = assay: Antibacterial activity against Pseudomonas aeruginosa KCTC 1637 assessed as reduction in bacterial growth incubated for 18 to 22 hrs by spectrophotometry based broth microdilution method; assay type: functional; conditions: time 18-22 hrs, read-out: MIC100
Bacillus subtilis [5] = assay: Antibacterial activity against Bacillus subtilis KCTC 3068 assessed as reduction in bacterial growth incubated for 18 to 22 hrs by spectrophotometry based broth microdilution method; assay type: functional; conditions: time 18-22 hrs, read-out: MIC100
Staphylococcus aureus [6] = assay: Antibacterial activity against Staphylococcus aureus KCTC 1621 assessed as reduction in bacterial growth incubated for 18 to 22 hrs by spectrophotometry based broth microdilution method; assay type: functional; conditions: time 18-22 hrs, read-out: MIC100
Pseudomonas aeruginosa [7] = assay: Potency index, ratio of melittin MIC to test compound MIC for antibacterial activity against Pseudomonas aeruginosa KCTC 1637; assay type: functional
Bacillus subtilis [8] = assay: Potency index, ratio of melittin MIC to test compound MIC for antibacterial activity against Bacillus subtilis KCTC 3068; assay type: functional
Staphylococcus aureus [9] = assay: Potency index, ratio of melittin MIC to test compound MIC for antibacterial activity against Staphylococcus aureus KCTC 1621; assay type: functional
Erythrocyte [10] = assay: Hemolytic activity in sheep RBC at 16 ug/ml measured after 2 hrs by ELISA; assay type: cell-based, Ovis aries; conditions: dose 16 µg/ml
Erythrocyte [11] = assay: Hemolytic activity in sheep RBC measured after 2 hrs by ELISA; assay type: ADME, cell-based, Ovis aries
[12] = Therapeutic index, ratio of MHC for sheep RBC to geometric mean of peptide MIC for Escherichia coli KCTC 1682; assay type: toxicity; conditions: sheep red blood cells (erythrocytes), read-out: TI
[13] = Therapeutic index, ratio of MHC for sheep RBC to geometric mean of peptide MIC for Pseudomonas aeruginosa KCTC 1637; assay type: toxicity; conditions: sheep red blood cells (erythrocytes), read-out: TI
[14] = Therapeutic index, ratio of MHC for sheep RBC to geometric mean of peptide MIC for Bacillus subtilis KCTC 3068; assay type: toxicity; conditions: sheep red blood cells (erythrocytes), read-out: TI
[15] = Therapeutic index, ratio of MHC for sheep RBC to geometric mean of peptide MIC for Staphylococcus aureus KCTC 1621; assay type: toxicity; conditions: sheep red blood cells (erythrocytes), read-out: TI
Staphylococcus aureus [16] = assay: Antimicrobial activity against methicillin-resistant Staphylococcus aureus CCARM 3089 assessed as reduction in microbial growth incubated for 18 to 24 hrs by broth microdilution method; assay type: functional; conditions: time 18-24 hrs
Staphylococcus aureus [17] = assay: Antimicrobial activity against methicillin-resistant Staphylococcus aureus CCARM 3090 assessed as reduction in microbial growth incubated for 18 to 24 hrs by broth microdilution method; assay type: functional; conditions: time 18-24 hrs
Staphylococcus aureus [18] = assay: Antimicrobial activity against methicillin-resistant Staphylococcus aureus CCARM 3095 assessed as reduction in microbial growth incubated for 18 to 24 hrs by broth microdilution method; assay type: functional; conditions: time 18-24 hrs
Staphylococcus aureus [19] = assay: Potency index, ratio of melittin MIC to test compound MIC for antimicrobial activity against methicillin-resistant Staphylococcus aureus CCARM 3089; assay type: functional
Staphylococcus aureus [20] = assay: Potency index, ratio of melittin MIC to test compound MIC for antimicrobial activity against methicillin-resistant Staphylococcus aureus CCARM 3090; assay type: functional
Staphylococcus aureus [21] = assay: Potency index, ratio of melittin MIC to test compound MIC for antimicrobial activity against methicillin-resistant Staphylococcus aureus CCARM 3095; assay type: functional
MDA-MB-231 [22] = assay: Cytotoxicity against human MDA-MB-231 cells assessed as reduction in cell viability at 50 uM measured after 48 hrs by EZCytox cell viability assay; assay type: cell-based; conditions: mda-mb-231, 48 h
MDA-MB-231 [23] = assay: Antiinvasive activity in human MDA-MB-231 cells at 40 uM measured after 16 hrs using crystal violet staining microscopy based Boyden chamber assay; assay type: functional, cell-based
MDA-MB-231 [24] = assay: Inhibition of cell motility in human MDA-MB-231 cells assessed as reduction in cell migration distance at 40 uM measured at 30 mins interval for 24 hrs by time-lapse […] analysis; assay type: functional, cell-based
Pseudomonas aeruginosa [25] = assay: Potency index, ratio of melittin MIC to test compound MIC for antimicrobial activity against multidrug-resistant Pseudomonas aeruginosa CCARM 2095 assessed as reduction in microbial growth
Pseudomonas aeruginosa [26] = assay: Potency index, ratio of melittin MIC to test compound MIC for antimicrobial activity against multidrug-resistant Pseudomonas aeruginosa CCARM 2109 assessed as reduction in microbial growth
Escherichia coli [27] = assay: Potency index, ratio of melittin MIC to test compound MIC for antibacterial activity against Escherichia coli KCTC 1682; assay type: functional

## Cc1cn([C@H]2C[C@H](NC(=O)CC34CC5CC(CC(C5)C3)C4)[C@@H](CNC(=O)CC34CC5CC(CC(C5)C3)C4)O2)c(=O)nc1N(CCCNC(=N)N)CCCNC(=N)N
MDA-MB-231 [1]
  inhibition: Active
MDA-MB-231 [2]
  Activity: Active
Escherichia coli [3]
  MIC: 16 µg/mL (≈ 20.3 µM)
Pseudomonas aeruginosa [4]
  MIC: 4 µg/mL (≈ 5.06 µM)
Bacillus subtilis [5]
  MIC: 2 µg/mL (≈ 2.53 µM)
Staphylococcus aureus [6]
  MIC: 2 µg/mL (≈ 2.53 µM)
Pseudomonas aeruginosa [7]
  Ratio: 4
Bacillus subtilis [8]
  Ratio: 4
Staphylococcus aureus [9]
  Ratio: 4
Erythrocyte [10]
  Activity: Non-Toxic
Erythrocyte [11]
  MHC: 25 µg/mL
[12]
  selectivity ratio: 4.2
[13]
  selectivity ratio: 4.2
[14]
  selectivity ratio: 4.2
[15]
  selectivity ratio: 4.2
Staphylococcus aureus [16]
  MIC: 8 µg/mL
Staphylococcus aureus [17]
  MIC: 8 µg/mL
Staphylococcus aureus [18]
  MIC: 8 µg/mL
Staphylococcus aureus [19]
  Ratio: 2
Staphylococcus aureus [20]
  Ratio: 2
Staphylococcus aureus [21]
  Ratio: 2
MDA-MB-231 [22]
  Activity: Non-Toxic
MDA-MB-231 [23]
  Activity: Active
MDA-MB-231 [24]
  Activity: Active
Pseudomonas aeruginosa [25]
  Ratio: 2
Pseudomonas aeruginosa [26]
  Ratio: 2

## O=C(O)c1cn(C2CC2)c2cc(N3CCNCC3)c(F)cc2c1=O [CIPROFLOXACIN]
Staphylococcus aureus [16]
  MIC: 512 µg/mL
Staphylococcus aureus [17]
  MIC: 512 µg/mL
Staphylococcus aureus [18]
  MIC: 512 µg/mL

## Cc1cn([C@H]2C[C@H](NC(=O)CCCc3ccccc3)[C@@H](CNC(=O)CCCc3ccccc3)O2)c(=O)nc1NCCNC(=N)N
Escherichia coli [3]
  MIC: > 64 µg/mL
Pseudomonas aeruginosa [4]
  MIC: 32 µg/mL (≈ 51.9 µM)
Bacillus subtilis [5]
  MIC: 64 µg/mL (≈ 104 µM)
Staphylococcus aureus [6]
  MIC: 64 µg/mL (≈ 104 µM)

## CCCCCC(=O)NC[C@H]1O[C@@H](n2cc(C)c(NCCNC(=N)N)nc2=O)C[C@@H]1NC(=O)CCCCC
Escherichia coli [3]
  MIC: > 64 µg/mL
Pseudomonas aeruginosa [4]
  MIC: 64 µg/mL (≈ 123 µM)
Bacillus subtilis [5]
  MIC: > 64 µg/mL
Staphylococcus aureus [6]
  MIC: > 64 µg/mL

## Cc1cn([C@H]2C[C@H](NC(=O)C3CCCCC3)[C@@H](CNC(=O)C3CCCCC3)O2)c(=O)nc1NCCNC(=N)N
Escherichia coli [3]
  MIC: > 64 µg/mL
Pseudomonas aeruginosa [4]
  MIC: > 64 µg/mL
Bacillus subtilis [5]
  MIC: > 64 µg/mL
Staphylococcus aureus [6]
  MIC: > 64 µg/mL

## Cc1cn([C@H]2C[C@H](NC(=O)CCCc3ccccc3)[C@@H](CNC(=O)CCCc3ccccc3)O2)c(=O)nc1N(CCCN)CCCN
Escherichia coli [3]
  MIC: > 64 µg/mL
Pseudomonas aeruginosa [4]
  MIC: 4 µg/mL (≈ 6.19 µM)
Bacillus subtilis [5]
  MIC: 16 µg/mL (≈ 24.8 µM)
Staphylococcus aureus [6]
  MIC: 32 µg/mL (≈ 49.5 µM)

## Cc1cn([C@H]2C[C@H](NC(=O)Cc3cccc4ccccc34)[C@@H](CNC(=O)Cc3cccc4ccccc34)O2)c(=O)nc1N(CCCN)CCCN
Escherichia coli [3]
  MIC: 64 µg/mL (≈ 92.8 µM)
Pseudomonas aeruginosa [4]
  MIC: 8 µg/mL (≈ 11.6 µM)
Bacillus subtilis [5]
  MIC: 4 µg/mL (≈ 5.8 µM)
Staphylococcus aureus [6]
  MIC: 16 µg/mL (≈ 23.2 µM)
Escherichia coli [27]
  Ratio: 4
Pseudomonas aeruginosa [7]
  Ratio: 2
Bacillus subtilis [8]
  Ratio: 2
Staphylococcus aureus [9]
  Ratio: 2

## Cc1cn([C@H]2C[C@H](NC(=O)Cc3cccc4ccccc34)[C@@H](CNC(=O)Cc3cccc4ccccc34)O2)c(=O)nc1NCCNC(=N)N
Escherichia coli [3]
  MIC: > 64 µg/mL
Pseudomonas aeruginosa [4]
  MIC: > 64 µg/mL
Bacillus subtilis [5]
  MIC: 16 µg/mL (≈ 24.2 µM)
Staphylococcus aureus [6]
  MIC: 32 µg/mL (≈ 48.4 µM)

## CCCCCC(=O)NC[C@H]1O[C@@H](n2cc(C)c(N(CCCNC(=N)N)CCCNC(=N)N)nc2=O)C[C@@H]1NC(=O)CCCCC
Escherichia coli [3]
  MIC: > 64 µg/mL
Pseudomonas aeruginosa [4]
  MIC: 16 µg/mL (≈ 25.2 µM)
Bacillus subtilis [5]
  MIC: 32 µg/mL (≈ 50.5 µM)
Staphylococcus aureus [6]
  MIC: 32 µg/mL (≈ 50.5 µM)
